Assays:
Type in all cases: ADME
[1] = biological target: T1, CYP2C8 (Homo sapiens, UniProt P10632); assay: Inhibition of CYP2C8 in human liver microsomes assessed as enzyme-mediated metabolite formation at 1 uM using paclitaxel as substrate incubated for 5 mins followed by NADPH addition measured after 30 mins by LC-MS/MS analysis relative to control; design: scale not given: the % may be the effect or the level left; conditions: probe paclitaxel, read-out: Activity
T1 sequence (P10632 whole entry): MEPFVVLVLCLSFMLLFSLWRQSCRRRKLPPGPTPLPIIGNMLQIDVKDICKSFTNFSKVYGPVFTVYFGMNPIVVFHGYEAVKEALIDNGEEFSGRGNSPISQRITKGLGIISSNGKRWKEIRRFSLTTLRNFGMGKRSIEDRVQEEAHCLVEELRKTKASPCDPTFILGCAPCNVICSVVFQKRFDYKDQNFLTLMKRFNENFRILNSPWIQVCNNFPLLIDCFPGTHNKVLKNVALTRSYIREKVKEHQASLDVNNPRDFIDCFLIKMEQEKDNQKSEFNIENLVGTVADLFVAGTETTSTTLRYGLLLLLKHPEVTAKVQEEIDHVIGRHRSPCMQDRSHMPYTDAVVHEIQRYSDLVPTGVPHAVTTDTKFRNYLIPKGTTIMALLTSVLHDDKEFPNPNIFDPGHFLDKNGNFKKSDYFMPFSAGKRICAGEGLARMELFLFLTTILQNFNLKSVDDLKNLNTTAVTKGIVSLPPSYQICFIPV

[2] = biological target: Cytochrome P450 2D6 (Homo sapiens, UniProt P10635); assay: Inhibition of CYP2D6 in human liver microsomes assessed as enzyme-mediated metabolite formation using dextromethorphan as substrate incubated for 5 mins followed by NADPH addition measured after 30 mins by LC-MS/MS analysis
[3] = biological target: T1, CYP2C8; assay: Inhibition of CYP2C8 in human liver microsomes assessed as enzyme-mediated metabolite formation at 0.3 uM using paclitaxel as substrate incubated for 5 mins followed by NADPH addition measured after 30 mins by LC-MS/MS analysis relative to control; design: scale not given: the % may be the effect or the level left; conditions: probe paclitaxel, read-out: Activity
[4] = biological target: T2, CYP2A6 (Homo sapiens, UniProt P11509); assay: Inhibition of CYP2A6 in human liver microsomes assessed as enzyme-mediated metabolite formation at 0.1 uM using coumarin as substrate incubated for 5 mins followed by NADPH addition measured after 30 mins by LC-MS/MS analysis relative to control; design: scale not given: the % may be the effect or the level left; conditions: probe coumarin, read-out: Activity
T2 sequence (P11509 whole entry): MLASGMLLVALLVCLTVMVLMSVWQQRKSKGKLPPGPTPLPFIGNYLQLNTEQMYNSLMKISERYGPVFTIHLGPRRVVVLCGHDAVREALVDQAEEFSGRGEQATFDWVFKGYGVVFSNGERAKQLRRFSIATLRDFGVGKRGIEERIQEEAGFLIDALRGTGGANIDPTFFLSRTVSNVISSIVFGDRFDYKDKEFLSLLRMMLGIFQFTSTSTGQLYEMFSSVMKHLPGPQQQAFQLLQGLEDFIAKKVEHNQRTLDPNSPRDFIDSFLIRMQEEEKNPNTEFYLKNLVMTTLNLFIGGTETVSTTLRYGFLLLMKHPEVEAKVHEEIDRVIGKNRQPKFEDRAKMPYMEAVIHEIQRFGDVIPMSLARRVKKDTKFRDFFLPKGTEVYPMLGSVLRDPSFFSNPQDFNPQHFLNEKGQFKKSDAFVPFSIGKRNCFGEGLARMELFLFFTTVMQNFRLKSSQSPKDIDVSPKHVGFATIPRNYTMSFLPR

[5] = biological target: T3, CYP2B6 (Homo sapiens, UniProt P20813); assay: Inhibition of CYP2B6 in human liver microsomes assessed as enzyme-mediated metabolite formation at 30 uM using bupropion as substrate incubated for 5 mins followed by NADPH addition measured after 30 mins by LC-MS/MS analysis relative to control; design: scale not given: the % may be the effect or the level left; conditions: probe bupropion, read-out: Activity
T3 sequence (P20813 whole entry): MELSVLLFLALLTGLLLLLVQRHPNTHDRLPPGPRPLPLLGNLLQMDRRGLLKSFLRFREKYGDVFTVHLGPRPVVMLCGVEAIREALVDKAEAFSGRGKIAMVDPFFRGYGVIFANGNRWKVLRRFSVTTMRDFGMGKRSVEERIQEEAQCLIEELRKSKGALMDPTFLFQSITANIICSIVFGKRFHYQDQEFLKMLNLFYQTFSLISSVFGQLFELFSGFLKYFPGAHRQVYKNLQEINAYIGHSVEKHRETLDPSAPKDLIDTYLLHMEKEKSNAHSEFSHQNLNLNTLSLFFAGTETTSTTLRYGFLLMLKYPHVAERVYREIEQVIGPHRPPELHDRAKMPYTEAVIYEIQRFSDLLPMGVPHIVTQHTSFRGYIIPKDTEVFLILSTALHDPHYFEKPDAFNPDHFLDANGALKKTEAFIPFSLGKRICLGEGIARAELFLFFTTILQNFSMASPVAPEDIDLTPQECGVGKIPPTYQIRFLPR

[6] = biological target: T4, Cytochrome P450 2A6 (Homo sapiens, UniProt P11509); assay: Inhibition of CYP2A6 in human liver microsomes assessed as enzyme-mediated metabolite formation using coumarin as substrate incubated for 5 mins followed by NADPH addition measured after 30 mins by LC-MS/MS analysis
T4 sequence (P11509 whole entry): T2 sequence (P11509 whole entry)

[7] = biological target: T1, CYP2C8; assay: Inhibition of CYP2C8 in human liver microsomes assessed as enzyme-mediated metabolite formation at 30 uM using paclitaxel as substrate preincubated for 20 mins followed by substrate addition measured after 30 mins in presence of NADPH by LC-MS/MS analysis relative to control; design: scale not given: the % may be the effect or the level left; conditions: probe paclitaxel, read-out: Activity
[8] = biological target: CYP3A4 (Homo sapiens, UniProt P08684); assay: Inhibition of CYP3A4 in human liver microsomes assessed as enzyme-mediated metabolite formation at 3 uM using testosterone as substrate incubated for 5 mins followed by NADPH addition measured after 30 mins by LC-MS/MS analysis relative to control; design: scale not given: the % may be the effect or the level left; conditions: probe testosterone, read-out: Activity
CYP3A4, sequence (P08684 whole entry): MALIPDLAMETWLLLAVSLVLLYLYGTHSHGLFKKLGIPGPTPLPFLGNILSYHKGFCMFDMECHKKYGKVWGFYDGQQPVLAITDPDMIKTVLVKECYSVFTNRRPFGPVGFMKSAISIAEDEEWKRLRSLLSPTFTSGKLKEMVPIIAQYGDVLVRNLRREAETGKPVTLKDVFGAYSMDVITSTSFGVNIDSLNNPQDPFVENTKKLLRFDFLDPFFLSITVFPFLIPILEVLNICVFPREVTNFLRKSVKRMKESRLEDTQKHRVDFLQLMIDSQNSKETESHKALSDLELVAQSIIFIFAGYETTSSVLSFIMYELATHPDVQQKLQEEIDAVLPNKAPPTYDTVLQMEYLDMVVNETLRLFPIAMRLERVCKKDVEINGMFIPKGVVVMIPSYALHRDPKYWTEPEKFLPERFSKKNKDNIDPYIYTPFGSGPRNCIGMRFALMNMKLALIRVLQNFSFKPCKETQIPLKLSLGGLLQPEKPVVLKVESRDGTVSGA

Cytochrome P450 2D6, sequence (P10635 whole entry): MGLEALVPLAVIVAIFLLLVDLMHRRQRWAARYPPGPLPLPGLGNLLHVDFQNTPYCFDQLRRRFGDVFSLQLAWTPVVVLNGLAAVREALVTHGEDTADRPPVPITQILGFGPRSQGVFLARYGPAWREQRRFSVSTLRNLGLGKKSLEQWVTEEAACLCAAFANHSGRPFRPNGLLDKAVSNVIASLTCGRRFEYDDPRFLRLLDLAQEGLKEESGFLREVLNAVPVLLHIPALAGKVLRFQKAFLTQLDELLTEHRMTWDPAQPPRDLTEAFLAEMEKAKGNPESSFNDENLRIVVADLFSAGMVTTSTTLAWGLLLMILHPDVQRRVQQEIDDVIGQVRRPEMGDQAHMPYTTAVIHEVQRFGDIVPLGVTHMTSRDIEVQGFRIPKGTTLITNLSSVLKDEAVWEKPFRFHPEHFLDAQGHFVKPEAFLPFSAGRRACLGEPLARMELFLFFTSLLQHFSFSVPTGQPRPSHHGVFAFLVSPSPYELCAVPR

- activity at 0.5 h, 1 µM [1]: 68.7%
- IC50 [2]: > 30 µM
- activity at 0.5 h, 0.3 µM [3]: 82%
- activity at 0.5 h, 0.1 µM [4]: 103%
- activity at 0.5 h, 30 µM [5]: 37%
- IC50 [6]: > 30 µM
- activity at 0.5 h, 30 µM [7]: 40.2%
- activity at 0.5 h, 3 µM [8]: 63.3%
SMILES: CCCCCCCC(=O)CCc1ccc(O)c(OC)c1

Source: ChEMBL document CHEMBL4007467, “Effects of 6-paradol, an unsaturated ketone from gingers, on cytochrome P450-mediated drug metabolism” (Bioorg Med Chem Lett, 2017)
